Strand notation (5' to 3'): a small letter for the sugar, then the base; units joined by * are phosphorothioate-linked, units joined directly phosphodiester-linked; [ ] holds rarer units or linkages, { } end groups; capitals alone tell only the bases. k = constrained ethyl (cEt); [5mC] = 5-methylcytosine; d = 2'-deoxy (DNA)
Tested on: Yap1 mRNA
Test: Antisense inhibition of human Yap1 in A-431 cells by cEt gapmers, single dose (Example 3, RTS36584)
Format: cell-based
Outline: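 Values are % untreated control: Yap1 mRNA by quantitative RT-PCR (RTS36584), normalized to total RNA by RiboGreen. Before RNA isolation, 5,000 A-431 cells per well were exposed ~48 h to 2,000 nM 16-mer cEt gapmer, delivered without transfection reagent.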

[1] = Table 29, Yap1 mRNA as percent of untreated control, 3-10-3 cEt gapmers targeting SEQ ID NO.: 1, and 2
[2] = Table 11, A-431 cells, 5,000 cells per well, free uptake, 2,000 nM oligonucleotide, approx. 48 hours, primer probe set RTS36584, Yap1 mRNA normalized to RIBOGREEN, percent of untreated control
[3] = Table 9, A-431 cells, 5,000 cells per well, free uptake, 2,000 nM, approximately 48 hours, RTS36584, normalized to RIBOGREEN, Yap1 mRNA relative to untreated control cells
[4] = Table 26, Yap1 mRNA by 3-10-3 cEt gapmers targeting SEQ ID NO.: 1, and 2, percent of untreated control
[5] = Table 12, A-431 cells, 5,000 cells per well, free uptake, 2,000 nM modified oligonucleotide, approx. 48 hours, RTS36584, normalized to RIBOGREEN, Yap1 mRNA relative to untreated control cells
[6] = Table 27, Yap1 mRNA by 3-10-3 cEt gapmers targeting SEQ ID NO.: 1, and 2, percent of untreated control
[7] = Table 34, Yap1 mRNA as percent of untreated control, 3-10-3 cEt gapmers targeting SEQ ID NO: 1 and 2, single dose
[8] = Table 13, A-431 cells, 5,000 cells per well, free uptake, 2,000 nM modified oligonucleotide, approx. 48 hours, RTS36584, normalized to RIBOGREEN, Yap1 mRNA relative to untreated control cells
[9] = Table 35, Yap1 mRNA as percent of untreated control, 3-10-3 cEt gapmers targeting SEQ ID NO: 1 and 2, single dose
[10] = Table 28, Yap1 mRNA as percent of untreated control, 3-10-3 cEt gapmers targeting SEQ ID NO.: 1, and 2
[11] = Table 10, A-431 cells, 5,000 cells per well, free uptake, 2,000 nM oligonucleotide, approx. 48 hours, primer probe set RTS36584, Yap1 mRNA normalized to RIBOGREEN, percent of untreated control

Substance: 1074767 (kT*kT*kA*dT*d[5mC]*d[5mC]*d[5mC]*dA*dA*dT*dG*d[5mC]*dT*kA*k[5mC]*k[5mC]; antisense) [compound 1074767]
- YAP1 (% UTC) [1]: 12 % UTC

Substance: 958788 (antisense k[5mC]*kT*kG*dG*dG*d[5mC]*dA*dA*dA*dG*dT*dT*d[5mC]*k[5mC]*kT*k[5mC]) [Compound 958788]
- YAP1 (% UTC) [2]: 54 % UTC

Substance: 958736 (antisense kG*kT*kG*dA*dT*dA*dT*dG*dG*dA*dT*dT*d[5mC]*kT*kG*kT) [Compound 958736]
- YAP1 (% UTC) [3]: 3 % UTC

Substance: 958683 (kT*kA*kT*dT*dG*dT*dG*d[5mC]*dT*dG*d[5mC]*dA*dT*k[5mC]*kT*k[5mC]; antisense) [Compound 958683]
- YAP1 (% UTC) [2]: 16 % UTC

Substance: 1075148 (k[5mC]*kG*kG*dA*dA*dA*dA*dA*dA*d[5mC]*dA*d[5mC]*d[5mC]*kT*kA*kG; antisense) [compound 1075148]
- YAP1 (% UTC) [4]: 66 % UTC

Substance: 958684 (kG*k[5mC]*kT*dG*dA*dA*dG*dA*d[5mC]*dG*dG*d[5mC]*d[5mC]*k[5mC]*kT*kT; antisense) [Compound 958684]
- YAP1 (% UTC) [5]: 70 % UTC

Substance: 1074189 (antisense kG*kG*k[5mC]*dT*dG*d[5mC]*dG*dA*dA*dG*dG*d[5mC]*dG*kG*k[5mC]*kT) [compound 1074189]
- YAP1 (% UTC) [6]: 96 % UTC

Substance: 1075700 (kG*k[5mC]*k[5mC]*dA*dA*dA*dT*dA*dA*dG*dA*dG*dG*kT*kA*kG; antisense) [compound 1075700]
- YAP1 (% UTC) [7]: 22 % UTC

Substance: 1074804 (kT*kA*kG*d[5mC]*dA*dA*dA*dG*dT*d[5mC]*dA*d[5mC]*dT*kT*k[5mC]*k[5mC]; antisense) [compound 1074804]
- YAP1 (% UTC) [7]: 15 % UTC

Substance: 958720 (antisense kG*kT*k[5mC]*dT*dA*d[5mC]*dT*dA*dG*dA*dG*d[5mC]*dT*kG*k[5mC]*k[5mC]) [Compound 958720]
- YAP1 (% UTC) [8]: 12 % UTC

Substance: 958599 (kT*kT*k[5mC]*dA*dA*dG*dA*dA*dT*dA*d[5mC]*d[5mC]*d[5mC]*kA*kG*kT; antisense) [Compound 958599]
- YAP1 (% UTC) [5]: 5 % UTC

Substance: 958735 (antisense kA*kG*k[5mC]*dA*dA*dT*d[5mC]*dT*dT*dG*dT*dG*dG*kA*kT*k[5mC]) [Compound 958735]
- YAP1 (% UTC) [8]: 7 % UTC

Substance: 958531 (kG*kT*kA*dG*dG*dA*dG*d[5mC]*dA*dA*dG*dT*d[5mC]*kT*kT*kG; antisense) [Compound 958531]
- YAP1 (% UTC) [3]: 5 % UTC

Substance: 1074604 (DNA kT*kT*kA*dT*dT*dA*dA*dT*d[5mC]*dT*dG*dA*dT*k[5mC]*kA*k[5mC]) [compound 1074604]
- YAP1 (% UTC) [4]: 12 % UTC

Substance: 1075340 (antisense k[5mC]*k[5mC]*k[5mC]*dG*dA*dA*d[5mC]*dA*d[5mC]*d[5mC]*d[5mC]*dA*dA*kA*kA*kA) [compound 1075340]
- YAP1 (% UTC) [4]: 103 % UTC

Substance: 1076373 (antisense kA*kA*k[5mC]*dG*dG*dA*dT*dA*dT*dA*d[5mC]*dA*dA*kT*kA*kA) [compound 1076373]
- YAP1 (% UTC) [9]: 10 % UTC

Substance: 1074893 (antisense kG*k[5mC]*kT*dG*dA*dA*dG*dT*dT*dT*dA*dG*d[5mC]*k[5mC]*kT*kG) [compound 1074893]
- YAP1 (% UTC) [6]: 78 % UTC

Substance: 1074478 (k[5mC]*k[5mC]*kT*dA*dG*dG*dT*dT*d[5mC]*d[5mC]*dG*dA*d[5mC]*kA*kA*kA; antisense) [compound 1074478]
- YAP1 (% UTC) [10]: 69 % UTC

Substance: 1074900 (antisense kA*kT*kT*dA*dA*d[5mC]*dT*dT*dT*dT*dG*dG*dG*k[5mC]*kA*kA) [compound 1074900]
- YAP1 (% UTC) [7]: 40 % UTC

Substance: 1075087 (antisense kT*k[5mC]*kT*d[5mC]*dA*dA*dT*dA*dA*dG*dT*dT*dA*kT*kA*kG) [compound 1075087]
- YAP1 (% UTC) [1]: 39 % UTC

Substance: 958761 (antisense kA*kG*kT*d[5mC]*dT*d[5mC]*dA*dA*d[5mC]*dA*dA*d[5mC]*d[5mC]*kT*kT*k[5mC]) [Compound 958761]
- YAP1 (% UTC) [3]: 7 % UTC

Substance: 958607 (antisense k[5mC]*kA*kA*d[5mC]*dA*dT*dG*d[5mC]*dT*dT*dG*d[5mC]*dG*kA*kG*kG) [Compound 958607]
- YAP1 (% UTC) [11]: 11 % UTC

Substance: 1075023 (antisense kG*kT*kA*dT*dT*dT*dA*d[5mC]*dA*dA*d[5mC]*d[5mC]*dT*kA*kG*kA) [compound 1075023]
- YAP1 (% UTC) [1]: 18 % UTC

Substance: 1075605 (antisense k[5mC]*kG*kT*dA*dA*dA*d[5mC]*dA*dT*dT*dT*dT*dG*k[5mC]*k[5mC]*kT) [compound 1075605]
- YAP1 (% UTC) [9]: 38 % UTC

Substance: 1075693 (k[5mC]*kA*kT*dT*dA*dA*dA*dA*dG*dT*dT*dG*dG*kG*kT*kT; antisense) [compound 1075693]
- YAP1 (% UTC) [6]: 36 % UTC

Substance: 958540 (kA*kT*kT*d[5mC]*dT*dA*dT*d[5mC]*d[5mC]*dA*dG*dG*dG*kT*k[5mC]*kA; antisense) [Compound 958540]
- YAP1 (% UTC) [8]: 8 % UTC

Substance: 958730 (antisense k[5mC]*kT*k[5mC]*dT*dG*dT*d[5mC]*dA*dG*dT*dT*dA*dT*k[5mC]*k[5mC]*kT) [Compound 958730]
- YAP1 (% UTC) [8]: 4 % UTC

Substance: 958503 (kA*kA*k[5mC]*d[5mC]*dA*dT*d[5mC]*d[5mC]*d[5mC]*dA*dA*dG*d[5mC]*kT*kA*k[5mC]; antisense) [Compound 958503]
- YAP1 (% UTC) [2]: 15 % UTC

Substance: 1076204 (kG*kA*kT*dA*dA*dT*dG*dA*dA*dT*d[5mC]*d[5mC]*dT*kT*kG*kT; antisense) [compound 1076204]
- YAP1 (% UTC) [4]: 11 % UTC

Substance: 958606 (antisense kT*k[5mC]*k[5mC]*dA*d[5mC]*d[5mC]*dT*dG*dA*dG*d[5mC]*dA*d[5mC]*kT*k[5mC]*kA) [Compound 958606]
- YAP1 (% UTC) [3]: 31 % UTC

Substance: 1075117 (k[5mC]*k[5mC]*kT*d[5mC]*dA*dA*dT*dA*dG*d[5mC]*dA*dA*dG*kA*k[5mC]*kA; antisense) [compound 1075117]
- YAP1 (% UTC) [6]: 48 % UTC

Substance: 1075598 (antisense kA*kA*kT*dT*dA*dA*d[5mC]*dA*dT*dT*dT*dG*d[5mC]*k[5mC]*k[5mC]*kG) [compound 1075598]
- YAP1 (% UTC) [10]: 62 % UTC

Substance: 958618 (antisense kA*kG*k[5mC]*d[5mC]*dA*dA*dG*dA*dG*dG*dT*dG*dG*kT*k[5mC]*kT) [Compound 958618]
- YAP1 (% UTC) [2]: 36 % UTC

Substance: 1074964 (antisense kT*kT*kA*dG*dG*d[5mC]*dA*dA*dG*d[5mC]*dA*dG*d[5mC]*kT*kA*kA) [compound 1074964]
- YAP1 (% UTC) [7]: 112 % UTC

Substance: 1075765 (k[5mC]*kT*kT*dA*dA*dG*dG*d[5mC]*dA*dG*d[5mC]*dT*d[5mC]*kT*kA*kT; antisense) [compound 1075765]
- YAP1 (% UTC) [9]: 58 % UTC

Substance: 1075572 (antisense k[5mC]*kA*kA*dT*dT*dT*dA*dA*d[5mC]*dT*dG*dT*dT*kA*k[5mC]*kA) [compound 1075572]
- YAP1 (% UTC) [7]: 84 % UTC

Substance: 958473 (antisense kG*kT*k[5mC]*dT*d[5mC]*d[5mC]*dT*dT*dA*dG*dA*dT*d[5mC]*k[5mC]*kT*kT) [Compound 958473]
- YAP1 (% UTC) [2]: 5 % UTC

Substance: 958675 (kT*k[5mC]*k[5mC]*d[5mC]*dT*dA*dT*d[5mC]*dA*dG*d[5mC]*dT*dG*kG*kG*k[5mC]; antisense) [Compound 958675]
- YAP1 (% UTC) [8]: 112 % UTC

Substance: 958776 (antisense kG*kG*kT*dA*d[5mC]*dT*d[5mC]*dT*d[5mC]*d[5mC]*dT*dT*d[5mC]*kA*kG*kA) [Compound 958776]
- YAP1 (% UTC) [3]: 94 % UTC

Substance: 958476 (antisense kT*kT*k[5mC]*d[5mC]*dG*dG*dT*dG*d[5mC]*dA*dT*dG*dT*kG*kT*k[5mC]) [Compound 958476]
- YAP1 (% UTC) [3]: 2 % UTC

Substance: 1075310 (antisense kG*kT*kA*dA*dT*dT*dA*dA*dA*d[5mC]*dG*dA*dA*kA*k[5mC]*kA) [compound 1075310]
- YAP1 (% UTC) [10]: 84 % UTC

Substance: 1074644 (antisense kA*kT*kT*dG*dA*dA*dG*dG*dG*d[5mC]*d[5mC]*dA*dA*kA*kA*kT) [compound 1074644]
- YAP1 (% UTC) [7]: 93 % UTC

Substance: 958535 (kG*kG*kG*dT*d[5mC]*dA*dA*dT*dT*dT*dT*d[5mC]*dA*kG*k[5mC]*kA; antisense) [Compound 958535]
- YAP1 (% UTC) [8]: 10 % UTC

Substance: 958712 (antisense kT*kT*kA*dT*dA*dT*dA*dG*dG*dT*dT*dA*d[5mC]*kA*kG*kA) [Compound 958712]
- YAP1 (% UTC) [11]: 52 % UTC

Substance: 1076245 (k[5mC]*k[5mC]*kT*dA*dA*dA*dA*dA*dA*d[5mC]*dT*dA*dG*kT*kG*kA; antisense) [compound 1076245]
- YAP1 (% UTC) [9]: 101 % UTC

Substance: 1074124 (kG*kG*k[5mC]*dT*dG*d[5mC]*dG*dA*dG*dG*d[5mC]*dA*d[5mC]*kT*k[5mC]*kG; antisense) [compound 1074124]
- YAP1 (% UTC) [4]: 94 % UTC

Substance: 958624 (antisense kG*kG*kG*dA*dT*dT*dG*dA*dT*dA*dT*dT*d[5mC]*k[5mC]*kG*k[5mC]) [Compound 958624]
- YAP1 (% UTC) [5]: 74 % UTC

— patent US11214803B2, “Modulators of YAP1 expression” (Ionis Pharmaceuticals, Inc., priority 2019, dated 2022)
